Reference: patent publication US10543189B2, “2-acetylnaphtho[2,3-b]furan -4,9-dione for use on treating cancer” (Boston Biomedical, Inc., priority 2013, dated 2020)
“And” between values parts separate entries of the source, which are not always exact repeats. Identical values can stand only once.

How the values were obtained:
[1] = test system: solid tumor that is metastatic, unresectable, or recurrent; assay: Phase I dose escalation trial: preliminary antitumor activity; assay type: in vivo, human
Procedure: Each cycle consists of twice-daily oral administration of the compound for 4 weeks. Cycles were repeated every 4 weeks (28 days) until progression of disease, unacceptable toxicity, or another discontinuation criterion is met. The dose escalation trial was conducted as open label and multicenter trial. A modified Simon accelerated titration scheme was used for dose escalation.
The primary objective of the trial was to determine the safety, tolerability, and recommended phase II dose (RP2D). The secondary objectives of the trial were to determine the pharmacokinetic profile of the compound, pharmacodynamics of the compound, and preliminary antitumor activity of the compound.
The inclusion criteria included histologically or cytologically confirmed solid tumor that is metastatic, unresectable, or recurrent; >18 years of age; Measurable disease by RECIST; and Kamofsky ≥70%. The exclusion criteria included chemotherapy, radiotherapy, immunotherapy or investigational agent within 4 weeks of first dose; surgery within 4 weeks of first dose; and known brain metastases.

[2] = Phase 1 extension study of higher strength capsule (DP2A): adverse events; assay type: in vivo
Source text: However, with the higher strength capsules, we observed worsening gastrointestinal adverse effects including nausea, vomiting, and diarrhea in patients.
Additional studies were run using an oral formulation of the Compound of the Invention, specifically a higher strength capsule formulation (DP2A). As described herein, the Compound of the Invention blocks cancer stem cell (CSC) self-renewal and induces cell death in CSC as well as non-stem cancer cells by inhibiting Stat3, β-catenin, and Nanog pathways, and has shown potent anti-tumor and anti-metastatic activities pre-clinically. […] The studies described herein were designed as a phase 1 extension study to evaluate a formulation designed for pivotal trials to determine pharmacokinetics (PK) in patients with advanced cancer.
On Day 1, patients received a single 500 mg dose of an oral administration formulation of the Compound of the Invention (DP1). On Day 4 and Day 8, a higher strength capsule designed for pivotal trials (DP2A) was given with fasting then fed conditions. DP2A was then administered daily until disease progression or unacceptable toxicity. Endpoints were safety, PK and preliminary anticancer activity.

[3] = Total Daily Dose 20 mg, Colon adencarcinoma
[4] = Total Daily Dose 400 mg, Colon adenocarcinoma
[5] = Total Daily Dose 400 mg, Ovarian carcinoma
[6] = Total Daily Dose 500 mg, Breast carcinoma (triple negative)
[7] = q 4 h dosing (N = 17), AE possibly related to BBI608

SMILES: CC(=O)c1cc2c(o1)C(=O)c1ccccc1C2=O [Compound 1, 2-acetylnaphtho[2,3-b]furan-4,9-dione]
- antitumor activity in a kidney with colon cancer lesions ([1]; 20 mg QD, very high concentration of the drug in urine): signs of particularly potent antitumor activity
- regression of a colon cancer metastatic lesion to kidney ([1]; Patient 0001): complete regression
- disease control (disease stabilization and tumor regression), patients evaluable for tumor response ([1]; Phase I, tumors refractory to chemotherapies): 65%
- Weeks on Study [1, 3]: 76 weeks
- regression [1, 3]: 22%
- Weeks on Study ([1]; Total Daily Dose 80 mg, Head and fleck carcinoma): 17 weeks
- Weeks on Study ([1]; Total Daily Dose 320 mg, Colon adenocarcinoma (two patients)): 24 weeks and 12 weeks
- CEA [1, 4]: 50%
- Weeks on Study [1, 4]: 11 weeks
- Weeks on Study ([1]; Total Daily Dose 400 mg, Gastric adenocarcinoma): 19 weeks
- CA125 [1, 5]: CA125 normalization
- Weeks on Study [1, 5]: 16 weeks
- Weeks on Study [1, 6]: 29 weeks
- outcome after surgical resection of remaining hollowed lesion [1, 6]: resected; patient disease free)
- Weeks on Study ([1]; Total Daily Dose 800 mg, Chondrosarocoma): 13 weeks
- Weeks on Study ([1]; Total Daily Dose 1000 mg, Adrenocarticoid carcinoma): 17 weeks
- Weeks on Study ([1]; Total Daily Dose 1000 mg, Colon: adencarcinoma): 16 weeks
- Weeks on Study ([1]; Total Daily Dose 1400 mg, Melanona): 16 weeks
- AE summary ([2]; Patient 0053, at 500 mg bid q4h (gastrointestinal issues)): No significant gastrointestinal
- AE summary ([2]; Patient 0054, at 500 mg bid q4h (gastrointestinal issues)): No significant gastrointestinal
- AE summary ([2]; Patient 0061, fatigue, cramping, diarrhea, and nausea starting at 500 mg bid q4h and persisting at 375 mg/250 mg/250 mg q4h): Intolerable grade 2 fatigue,
- Abdominal cramps/pain, Grade 1 or 2, # Subjects [2, 7]: 13
- Abdominal cramps/pain, Grade 1 or 2, % [2, 7]: 76.5%
- Abdominal cramps/pain, Grade 3, # Subjects [2, 7]: 1
- Abdominal cramps/pain, Grade 3, % [2, 7]: 5.9%
- Anorexia, Grade 1 or 2, # Subjects [2, 7]: 10
- Anorexia, Grade 1 or 2, % [2, 7]: 58.8%
- Anorexia, Grade 3, # Subjects [2, 7]: 3
- Anorexia, Grade 3, % [2, 7]: 17.6%
- Bloated abdomen, Grade 1 or 2, # Subjects [2, 7]: 4
- Bloated abdomen, Grade 1 or 2, % [2, 7]: 23.5%
- Bloated abdomen, Grade 3, # Subjects [2, 7]: 0
- Bloated abdomen, Grade 3, % [2, 7]: 0.0%
- Dehydration, Grade 1 or 2, # Subjects [2, 7]: 1
- Dehydration, Grade 1 or 2, % [2, 7]: 5.9%
- Dehydration, Grade 3, # Subjects [2, 7]: 0
- Dehydration, Grade 3, % [2, 7]: 0.0%
- Depression, Grade 1 or 2, # Subjects [2, 7]: 0
- Depression, Grade 1 or 2, % [2, 7]: 0.0%
- Depression, Grade 3, # Subjects [2, 7]: 0
- Depression, Grade 3, % [2, 7]: 0.0%
- Diarrhea, Grade 1 or 2, # Subjects [2, 7]: 14
- Diarrhea, Grade 1 or 2, % [2, 7]: 82.4%
- Diarrhea, Grade 3, # Subjects [2, 7]: 4
- Diarrhea, Grade 3, % [2, 7]: 23.5%
- Dysgusia, Grade 1 or 2, # Subjects [2, 7]: 1
- Dysgusia, Grade 1 or 2, % [2, 7]: 5.9%
- Dysgusia, Grade 3, # Subjects [2, 7]: 0
- Dysgusia, Grade 3, % [2, 7]: 0.0%
- Fatigue/weakness, Grade 1 or 2, # Subjects [2, 7]: 10
- Fatigue/weakness, Grade 1 or 2, % [2, 7]: 58.8%
- Fatigue/weakness, Grade 3, # Subjects [2, 7]: 3
- Fatigue/weakness, Grade 3, % [2, 7]: 17.6%
- Flatulence, Grade 1 or 2, # Subjects [2, 7]: 2
- Flatulence, Grade 1 or 2, % [2, 7]: 11.8%
- Flatulence, Grade 3, # Subjects [2, 7]: 0
- Flatulence, Grade 3, % [2, 7]: 0.0%
- Nausea, Grade 1 or 2, # Subjects [2, 7]: 8
- Nausea, Grade 1 or 2, % [2, 7]: 47.1%
- Nausea, Grade 3, # Subjects [2, 7]: 1
- Nausea, Grade 3, % [2, 7]: 5.9%
- Rectal/Anal Burning, Grade 1 or 2, # Subjects [2, 7]: 3
- Rectal/Anal Burning, Grade 1 or 2, % [2, 7]: 17.6%
- Rectal/Anal Burning, Grade 3, # Subjects [2, 7]: 0
- Rectal/Anal Burning, Grade 3, % [2, 7]: 0.0%
- Reflux (also heartburn), Grade 1 or 2, # Subjects [2, 7]: 1
- Reflux (also heartburn), Grade 1 or 2, % [2, 7]: 5.9%
- Reflux (also heartburn), Grade 3, # Subjects [2, 7]: 0
- Reflux (also heartburn), Grade 3, % [2, 7]: 0.0%
- Urine Color Change, Grade 1 or 2, # Subjects [2, 7]: 2
- Urine Color Change, Grade 1 or 2, % [2, 7]: 11.8%
- Urine Color Change, Grade 3, # Subjects [2, 7]: 0
- Urine Color Change, Grade 3, % [2, 7]: 0.0%
- Vomiting, Grade 1 or 2, # Subjects [2, 7]: 7
- Vomiting, Grade 1 or 2, % [2, 7]: 41.2%
- Vomiting, Grade 3, # Subjects [2, 7]: 0
- Vomiting, Grade 3, % [2, 7]: 0.0%
- Weight loss, Grade 1 or 2, # Subjects [2, 7]: 8
